Species: Rattus norvegicus
Experiment: DrugMatrix - Regimen: Daily Repeat
Assay type: toxicity, organism-based, Sprague-Dawley
Set-up: regimen Daily Repeat, gender Male, age 6-8 weeks
Conditions: in vivo, iv, vehicle 100 % SALINE; for ABSOLUTE BASOPHIL / ABSOLUTE EOSINOPHIL / ABSOLUTE LYMPHOCYTE / ABSOLUTE MONOCYTE / ABSOLUTE SEGMENTED NEUTROPHIL / BASOPHIL / EOSINOPHIL / ERYTHROCYTE COUNT / HEMATOCRIT / HEMOGLOBIN / LEUKOCYTE COUNT / LYMPHOCYTE / MEAN CORPUSCULAR HEMOGLOBIN / MEAN CORPUSCULAR HEMOGLOBIN CONCENTRATION / MEAN CORPUSCULAR VOLUME / MONOCYTE / NEUTROPHIL / NUCLEATED RED BLOOD CELLS / PLATELET COUNT: tissue Blood; for ALANINE AMINOTRANSFERASE / ALBUMIN / ALKALINE PHOSPHATASE / ASPARTATE AMINOTRANSFERASE / BLOOD UREA NITROGEN / CARBON DIOXIDE / CHLORIDE / CHOLESTEROL / CREATINE PHOSPHOKINASE / CREATININE / GLUCOSE / LACTATE DEHYDROGENASE / LIPASE / PHOSPHORUS / POTASSIUM / SODIUM / TOTAL BILIRUBIN / TOTAL PROTEIN / URIC ACID: tissue Plasma
[1] = 0 mg/kg, 72 h, dose level Control, time 3 day
[2] = 0 mg/kg, 120 h, dose level Control, time 5 day
[3] = 0.005 mg/kg, 72 h, dose level Low, time 3 day

CC(=O)O[C@H]1C[C@@H]2CC[C@@H]3[C@H](CC[C@@]4(C)[C@H]3C[C@H]([N+]3(C)CCCCC3)[C@@H]4OC(C)=O)[C@@]2(C)C[C@@H]1N1CCCCC1.[Br-] [VECURONIUM BROMIDE]
ABSOLUTE BASOPHIL [1]: 0 CELLS/uL | ABSOLUTE EOSINOPHIL [1]: 0 CELLS/uL | ABSOLUTE LYMPHOCYTE [1]: 11636.83 CELLS/uL | ABSOLUTE MONOCYTE [1]: 159 CELLS/uL | ABSOLUTE SEGMENTED NEUTROPHIL [1]: 1170.83 CELLS/uL | BASOPHIL [1]: 0% | EOSINOPHIL [1]: 0% | ERYTHROCYTE COUNT [1]: 5.46 x10E6/uL | HEMATOCRIT [1]: 34.05% | HEMOGLOBIN [1]: 13.58 G/DL | LEUKOCYTE COUNT [1]: 12.97 x10E3/uL | LYMPHOCYTE [1]: 89.67% | MEAN CORPUSCULAR HEMOGLOBIN [1]: 24.87 pg | MEAN CORPUSCULAR HEMOGLOBIN CONCENTRATION [1]: 39.9 G/DL | MEAN CORPUSCULAR VOLUME [1]: 62.3 fL | MONOCYTE [1]: 1.33% | NEUTROPHIL [1]: 9% | NUCLEATED RED BLOOD CELLS [1]: 0.17 /100WBC | PLATELET COUNT [1]: 824 x10E3/uL | ALANINE AMINOTRANSFERASE [1]: 64.83 u/L | ALBUMIN [1]: 4.08 G/DL | ALKALINE PHOSPHATASE [1]: 421 u/L | ASPARTATE AMINOTRANSFERASE [1]: 116.83 u/L | BLOOD UREA NITROGEN [1]: 16.83 mg/dL | CARBON DIOXIDE [1]: 28 mmol/L | CHLORIDE [1]: 101.33 MEQ/L | CHOLESTEROL [1]: 74.17 mg/dL | CREATINE PHOSPHOKINASE [1]: 748.5 u/L | CREATININE [1]: 0.22 mg/dL | GLUCOSE [1]: 152.83 mg/dL | LACTATE DEHYDROGENASE [1]: 578.5 u/L | LIPASE [1]: 9.83 u/L | PHOSPHORUS [1]: 11.63 mg/dL | POTASSIUM [1]: 5.93 MEQ/L | SODIUM [1]: 142.1 MEQ/L | TOTAL BILIRUBIN [1]: 0.17 mg/dL | TOTAL PROTEIN [1]: 5.77 G/DL | URIC ACID [1]: 1.43 mg/dL | ABSOLUTE BASOPHIL [2]: 0 CELLS/uL | ABSOLUTE EOSINOPHIL [2]: 159.17 CELLS/uL | ABSOLUTE LYMPHOCYTE [2]: 12267.5 CELLS/uL | ABSOLUTE MONOCYTE [2]: 30 CELLS/uL | ABSOLUTE SEGMENTED NEUTROPHIL [2]: 1160 CELLS/uL | BASOPHIL [2]: 0% | EOSINOPHIL [2]: 1.17% | ERYTHROCYTE COUNT [2]: 5.52 x10E6/uL | HEMATOCRIT [2]: 34.3% | HEMOGLOBIN [2]: 13.73 G/DL | LEUKOCYTE COUNT [2]: 13.62 x10E3/uL | LYMPHOCYTE [2]: 90.5% | MEAN CORPUSCULAR HEMOGLOBIN [2]: 24.92 pg | MEAN CORPUSCULAR HEMOGLOBIN CONCENTRATION [2]: 40.07 G/DL | MEAN CORPUSCULAR VOLUME [2]: 62.17 fL | MONOCYTE [2]: 0.17% | NEUTROPHIL [2]: 8.17% | NUCLEATED RED BLOOD CELLS [2]: 0.17 /100WBC | PLATELET COUNT [2]: 1261.83 x10E3/uL | ALANINE AMINOTRANSFERASE [2]: 58.67 u/L | ALBUMIN [2]: 4.15 G/DL | ALKALINE PHOSPHATASE [2]: 364.67 u/L | ASPARTATE AMINOTRANSFERASE [2]: 105.33 u/L | BLOOD UREA NITROGEN [2]: 17.67 mg/dL | CARBON DIOXIDE [2]: 26.5 mmol/L | CHLORIDE [2]: 101.67 MEQ/L | CHOLESTEROL [2]: 63 mg/dL | CREATINE PHOSPHOKINASE [2]: 480.67 u/L | CREATININE [2]: 0.17 mg/dL | GLUCOSE [2]: 144.67 mg/dL | LACTATE DEHYDROGENASE [2]: 540.33 u/L | LIPASE [2]: 10.33 u/L | PHOSPHORUS [2]: 11.52 mg/dL | POTASSIUM [2]: 6.12 MEQ/L | SODIUM [2]: 142.45 MEQ/L | TOTAL BILIRUBIN [2]: 0.18 mg/dL | TOTAL PROTEIN [2]: 5.73 G/DL | URIC ACID [2]: 1.48 mg/dL | ABSOLUTE BASOPHIL [3]: 0 CELLS/uL | ABSOLUTE EOSINOPHIL [3]: 199.67 CELLS/uL | ABSOLUTE LYMPHOCYTE [3]: 11233.67 CELLS/uL | ABSOLUTE MONOCYTE [3]: 56 CELLS/uL | ABSOLUTE SEGMENTED NEUTROPHIL [3]: 844 CELLS/uL | BASOPHIL [3]: 0% | EOSINOPHIL [3]: 1.33% | ERYTHROCYTE COUNT [3]: 5.06 x10E6/uL | HEMATOCRIT [3]: 32.6% | HEMOGLOBIN [3]: 13.3 G/DL | LEUKOCYTE COUNT [3]: 12.33 x10E3/uL | LYMPHOCYTE [3]: 91.67% | MEAN CORPUSCULAR HEMOGLOBIN [3]: 26.33 pg | MEAN CORPUSCULAR HEMOGLOBIN CONCENTRATION [3]: 40.8 G/DL | MEAN CORPUSCULAR VOLUME [3]: 64.5 fL | MONOCYTE [3]: 0.33% | NEUTROPHIL [3]: 6.67% | NUCLEATED RED BLOOD CELLS [3]: 0.33 /100WBC | PLATELET COUNT [3]: 730.67 x10E3/uL | ALANINE AMINOTRANSFERASE [3]: 57 u/L | ALBUMIN [3]: 4.2 G/DL | ALKALINE PHOSPHATASE [3]: 421.67 u/L | ASPARTATE AMINOTRANSFERASE [3]: 117.33 u/L | BLOOD UREA NITROGEN [3]: 19 mg/dL | CARBON DIOXIDE [3]: 31 mmol/L | CHLORIDE [3]: 100.67 MEQ/L | CHOLESTEROL [3]: 72 mg/dL | CREATINE PHOSPHOKINASE [3]: 975.33 u/L | CREATININE [3]: 0.22 mg/dL | GLUCOSE [3]: 155.33 mg/dL | LACTATE DEHYDROGENASE [3]: 630.33 u/L | LIPASE [3]: 11.67 u/L | PHOSPHORUS [3]: 10.7 mg/dL | POTASSIUM [3]: 6.14 MEQ/L | SODIUM [3]: 141.83 MEQ/L | TOTAL BILIRUBIN [3]: 0.2 mg/dL | TOTAL PROTEIN [3]: 5.87 G/DL | URIC ACID [3]: 1.03 mg/dL

Source: ChEMBL document CHEMBL3885881, “DrugMatrix”
